Where a name gives a salt, the structure may show the parent alone.
Molecular target: T1, Dopamine beta hydroxylase (Homo sapiens, UniProt P09172)
T1 construct: 125 μl of plasma; tissue Instituto Português do Sangue Transplantação; host or cells: human plasma from healthy donors
T1 sequence (P09172 40-617 limits assumed): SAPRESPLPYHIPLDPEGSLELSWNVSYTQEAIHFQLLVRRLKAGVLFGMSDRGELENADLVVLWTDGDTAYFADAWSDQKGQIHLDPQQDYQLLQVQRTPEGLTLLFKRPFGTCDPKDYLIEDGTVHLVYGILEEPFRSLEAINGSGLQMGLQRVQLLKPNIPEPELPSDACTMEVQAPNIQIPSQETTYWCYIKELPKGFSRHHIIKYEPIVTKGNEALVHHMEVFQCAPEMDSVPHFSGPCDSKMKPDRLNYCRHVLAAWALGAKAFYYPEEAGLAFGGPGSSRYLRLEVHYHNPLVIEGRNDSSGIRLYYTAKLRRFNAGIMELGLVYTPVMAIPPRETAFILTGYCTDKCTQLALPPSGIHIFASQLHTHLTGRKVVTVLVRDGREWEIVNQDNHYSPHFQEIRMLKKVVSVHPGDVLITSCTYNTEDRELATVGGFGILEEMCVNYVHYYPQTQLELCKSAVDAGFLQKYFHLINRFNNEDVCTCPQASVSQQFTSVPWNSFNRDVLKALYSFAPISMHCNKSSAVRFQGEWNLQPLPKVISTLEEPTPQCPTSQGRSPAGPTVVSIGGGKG
Experiment: Dopamine beta hydroxylase activity in human plasma
Assay type: biochemical
Conditions: for Plasma (0.01 μM), activity in % of control: inhibitor 0.01 μM; for Plasma (0.1 μM), activity in % of control: inhibitor 0.1 μM; for Plasma (1 μM), activity in % of control: inhibitor 1 μM
Method in brief: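 Octopamine production from tyramine over 45 min at 37° C, measured photometrically at 330 nm after SCX extraction and periodate oxidation against an octopamine standard curve, indicates plasma DβH activity. Compounds tested at final 10, 100 and 1000 nM in human plasma, pH 5.0 cofactor buffer, 10 min preincubation; results as % of control.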

SMILES	Plasma (0.01 μM), activity in % of control	Plasma (0.1 μM), activity in % of control	Plasma (1 μM), activity in % of control
C[C@@H](NC(=O)Cc1[nH]c(=S)n2c1C[C@H](c1c(F)ccc(Br)c1F)C2)C1CCCCC1 [Example 127, 2-((R)-6-(3-bromo-2,6-difluorophenyl)-3-thioxo-2,5,6,7-tetrahydro-3H-pyrrolo[1,2-c]imidazol-1-yl)-N—((R)-1-cyclohexylethyl)acetamide]	81.3 % of control	83.8 % of control	–
O=C(Cc1[nH]c(=S)n2c1C[C@H](c1c(F)ccc(Br)c1F)C2)N1CCC(F)(F)CC1 [Example 117, (R)-2-(6-(3-bromo-2,6-difluorophenyl)-3-thioxo-2,5,6,7-tetrahydro-3H-pyrrolo[1,2-c]imidazol-1-yl)-1-(4,4-difluoropiperidin-1-yl)ethan-1-one]	74.5 % of control	43.0 % of control	–
CS(=O)(=O)C1CCN(CCc2[nH]c(=S)n3c2C[C@H](c2c(F)ccc(Br)c2F)C3)CC1 [Example 179, (R)-6-(3-bromo-2,6-difluorophenyl)-1-(2-(4-(methylsulfonyl)piperidin-1-yl)ethyl)-2,5,6,7-tetrahydro-3H-pyrrolo[1,2-c]imidazole-3-thione]	93.5 % of control	48.8 % of control	–
CS(=O)(=O)C1CCN(C(=O)Cc2[nH]c(=S)n3c2C[C@H](c2c(F)ccc(Br)c2F)C3)CC1 [Example 126, (R)-2-(6-(3-bromo-2,6-difluorophenyl)-3-thioxo-2,5,6,7-tetrahydro-3H-pyrrolo[1,2-c]imidazol-1-yl)-1-(4-(methylsulfonyl)piperidin-1-yl)ethan-1-one]	100.2 % of control	40.2 % of control	–
Fc1cc(F)c(F)c([C@H]2Cc3c(CN4CCOCC4)[nH]c(=S)n3C2)c1F [Example 209, (R)-1-(morpholinomethyl)-6-(2,3,5,6-tetrafluorophenyl)-6,7-dihydro-2H-pyrrolo[1,2-c]imidazole-3(5H)-thione Hydrochloride]	87.6 % of control	60.3 % of control	–
Cn1c(CCN[C@@H]2CCOC2)c2n(c1=S)C[C@@]1(c3cc(Br)ccc3F)C[C@@H]21 [Example 359, (5aS,6aR)-5a-(5-bromo-2-fluorophenyl)-2-methyl-1-(2-(((R)-tetrahydrofuran-3-yl)amino)ethyl)-5,5a,6,6a-tetrahydrocyclopropa[3,4]pyrrolo[1,2-c]imidazole-3(2H)-thione]	101.2 % of control	53.3 % of control	–
Fc1ccc(F)c([C@H]2Cc3c(CCN[C@@H]4CCOC4)[nH]c(=S)n3C2)c1F [Example 470]	112.0 % of control	79.4 % of control	–
Fc1ccc(F)c([C@H]2Cc3c(CCCN4CCCC4)[nH]c(=S)n3C2)c1F [Example 478, (R)-1-(3-(pyrrolidin-1-yl)propyl)-6-(2,3,6-trifluorophenyl)-2,5,6,7-tetrahydro-3H-pyrrolo[1,2-c]imidazole-3-thione hydrofluoride]	46.7 % of control	5.1 % of control	–
OCCc1[nH]c(=S)n2c1C[C@H](c1c(F)c(F)cc(F)c1F)C2 [Example 172, (R)-1-(2-hydroxyethyl)-6-(2,3,5,6-tetrafluorophenyl)-2,5,6,7-tetrahydro-3H-pyrrolo[1,2-c]imidazole-3-thione]	–	46.3 % of control	8.1 % of control
Cl.O=C(Cc1[nH]c(=S)n2c1C[C@@H](c1c(F)ccc(Cl)c1F)C2)NCCN1CCC(F)(F)CC1 [Example 115, (S)-2-(6-(3-chloro-2,6-difluorophenyl)-3-thioxo-2,5,6,7-tetrahydro-3H-pyrrolo[1,2-c]imidazol-1-yl)-N-(2-(4,4-difluoropiperidin-1-yl)ethyl)acetamide Hydrochloride]	48.0 % of control	0 % of control	–
Cn1c(CC(=O)N2CCOCC2)c2n(c1=S)C[C@@]1(c3c(F)ccc(Cl)c3F)C[C@@H]21 [Example 421, 2-((5aS,6aR)-5a-(3-chloro-2,6-difluorophenyl)-2-methyl-3-thioxo-2,3,5,5a,6,6a-hexahydrocyclopropa[3,4]pyrrolo[1,2-c]imidazol-1-yl)-1-morpholinoethan-1-one]	26.1 % of control	5.8 % of control	–
COCCNC(=O)Cc1[nH]c(=S)n2c1C[C@H](c1c(F)c(F)cc(F)c1F)C2 [Example 73, (R)—N-(2-methoxyethyl)-2-(6-(2,3,5,6-tetrafluorophenyl)-3-thioxo-2,5,6,7-tetrahydro-3H-pyrrolo[1,2-c]imidazol-1-yl)acetamide]	–	75.9 % of control	19.1 % of control
CN(C(=O)Cc1c2n(c(=S)n1C)C[C@@]1(c3cc(Cl)ccc3F)C[C@@H]21)C1COC1 [Example 431, 2-((5aS,6aR)-5a-(5-chloro-2-fluorophenyl)-2-methyl-3-thioxo-2,3,5,5a,6,6a-hexahydrocyclopropa[3,4]pyrrolo[1,2-c]imidazol-1-yl)-N-methyl-N-(oxetan-3-yl)acetamide]	54.3 % of control	10.1 % of control	–
O=C(Cc1[nH]c(=S)n2c1C[C@H](c1c(F)c(F)cc(F)c1F)C2)NCC1CC1 [Example 79, (R)—N-(cyclopropylmethyl)-2-(6-(2,3,5,6-tetrafluorophenyl)-3-thioxo-2,5,6,7-tetrahydro-3H-pyrrolo[1,2-c]imidazol-1-yl)acetamide]	–	54.3 % of control	10.3 % of control
CN1CCN(C(=O)Cc2[nH]c(=S)n3c2C[C@@H](c2c(F)ccc(Br)c2F)C3)CC1 [Example 91, (S)-2-(6-(3-bromo-2,6-difluorophenyl)-3-thioxo-2,5,6,7-tetrahydro-3H-pyrrolo[1,2-c]imidazol-1-yl)-1-(4-methylpiperazin-1-yl)ethan-1-one]	–	19.0 % of control	0 % of control

The remaining lines, values ahead:

Plasma (0.01 μM), activity in % of control	Plasma (0.1 μM), activity in % of control	Plasma (1 μM), activity in % of control	SMILES
–	44.1 % of control	6.1 % of control	CC(C)NC(=O)Cc1[nH]c(=S)n2c1C[C@@H](c1c(F)ccc(Cl)c1F)C2 [Example 88, (S)-2-(6-(3-chloro-2,6-difluorophenyl)-3-thioxo-2,5,6,7-tetrahydro-3H-pyrrolo[1,2-c]imidazol-1-yl)-N-isopropylacetamide]
65.6 % of control	14.8 % of control	–	CN(C(=O)Cc1c2n(c(=S)n1C)C[C@H](c1c(F)ccc(Cl)c1F)C2)C1CCOC1 (stereo partly drawn) [Example 383, 2-((S)-6-(3-chloro-2,6-difluorophenyl)-2-methyl-3-thioxo-2,5,6,7-tetrahydro-3H-pyrrolo[1,2-c]imidazol-1-yl)-N-methyl-N-(tetrahydrofuran-3-yl)acetamide]
90.6 % of control	38.4 % of control	–	Cn1c(CC(=O)N2CCC(CF)C2)c2n(c1=S)C[C@@H](c1c(F)ccc(F)c1F)C2 (stereo partly drawn) [Example 353, 1-(3-(fluoromethyl)pyrrolidin-1-yl)-2-((R)-2-methyl-3-thioxo-6-(2,3,6-trifluorophenyl)-2,5,6,7-tetrahydro-3H-pyrrolo[1,2-c]imidazol-1-yl)ethan-1-one]
91.5 % of control	53.6 % of control	–	Cn1c(CC(=O)N2CCOCC2)c2n(c1=S)C[C@@H](c1c(F)c(F)cc(F)c1F)C2 [Example 242, (R)-2-(2-methyl-6-(2,3,5,6-tetrafluorophenyl)-3-thioxo-2,5,6,7-tetrahydro-3H-pyrrolo[1,2-c]imidazol-1-yl)-1-morpholinoethan-1-one]
96.0 % of control	40.9 % of control	–	Cn1c(CC(N)=O)c2n(c1=S)C[C@H](c1c(F)ccc(Cl)c1F)C2 [Example 249, (S)-2-(6-(3-chloro-2,6-difluorophenyl)-2-methyl-3-thioxo-2,5,6,7-tetrahydro-3H-pyrrolo[1,2-c]imidazol-1-yl)acetamide]
92.5 % of control	79.3 % of control	–	Cn1c(CCN2CCCC2)c2n(c1=S)C[C@@H](c1c(F)ccc(F)c1F)C2 [Example 474, (R)-2-methyl-1-(2-(pyrrolidin-1-yl)ethyl)-6-(2,3,6-trifluorophenyl)-2,5,6,7-tetrahydro-3H-pyrrolo[1,2-c]imidazole-3-thione hydrofluoride]

From patent US11434242B2, “Dopamine-b-hydroxylase inhibitors” (BIAL-PORTELA & Cª, S.A., priority 2017, dated 2022)
